Counter-ions that a name gives are not always drawn.
These molecules were tested against T1, human adenosine A2A receptor (Homo sapiens, UniProt P29274) (assay: Human adenosine A2A receptor [3H]-SCH-58261 binding assay). Conditions: not given.
T1 construct: expressed in transfected cells; host or cells: CHO cells, semliki forest virus expression system; membrane preparation
Experimental: The gene encoding human adenosine A2A receptor was recombinantly introduced and expressed in chinese hamster ovary (CHO) cells using the semliki forest virus expression system. Cells were harvested, washed twice by centrifugation, homogenised and again washed by centrifugation. The final washed membrane pellet was suspended in a Tris (50 mM) buffer containing 120 mM NaCl, 5 mM KCl, 2 mM CaCl2 and 10 mM MgCl2 (pH 7.4) (buffer A). The [^3H]-SCH-58261 (Dionisotti et al., 1997, Br. J. Pharmacol. 121, 353; 1 nM) binding assay was carried out in 96-well plates in the presence of 2.5 μg of membrane protein, 0.5 mg of Ysi-poly-1-lysine SPA beads and 0.1 U adenosine deaminase in a final volume of 200 μl of buffer A. Non-specific binding was defined using xanthine amine congener (XAC; […]). Compounds were tested at 10 concentrations from 10 μM-0.3 nM. All assays were conducted in duplicate and repeated at least two times. Assay plates were incubated for 1 hour at room temperature before centrifugation and then bound ligand determined using a Packard Topcount scintillation counter. IC50 values were calculated using a non-linear curve fitting program and Ki values calculated using the Cheng-Prussoff equation.

T1 sequence (P29274 whole entry): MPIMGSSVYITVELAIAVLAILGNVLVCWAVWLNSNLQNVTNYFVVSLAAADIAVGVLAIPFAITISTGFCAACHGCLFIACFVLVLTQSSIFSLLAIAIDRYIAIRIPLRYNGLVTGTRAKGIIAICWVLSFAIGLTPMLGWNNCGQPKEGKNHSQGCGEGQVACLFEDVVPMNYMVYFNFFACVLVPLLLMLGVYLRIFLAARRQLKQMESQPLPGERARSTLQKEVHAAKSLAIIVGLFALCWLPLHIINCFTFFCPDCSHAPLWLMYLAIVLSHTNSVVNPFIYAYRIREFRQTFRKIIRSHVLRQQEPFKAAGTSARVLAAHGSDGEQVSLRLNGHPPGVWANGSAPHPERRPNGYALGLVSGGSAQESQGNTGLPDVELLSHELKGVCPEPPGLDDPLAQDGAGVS

| SMILES | Ki [nM] |
| --- | --- |
| N#Cc1c(-c2ccccc2)nc(N)nc1-c1ccco1 [Example 148, 2-Amino-4-furan-2-yl-6-phenyl-pyrimidine-5-carbonitrile] | 6.46 |

Same assay, conditions: human A2a receptor, membranes of CHO cells, [3H]-SCH-58261; read-out: pKi (affinity to the human A2a receptor) (converted)

| SMILES | Ki [nM] |
| --- | --- |
| N#Cc1c(NCC2CCc3ccccc3N2)nc(N)nc1-c1ccco1 (racemic) [Example 299, (RS)-2-Amino-4-furan-2-yl-6-[(1,2,3,4-tetrahydro-quinolin-2-ylmethyl)-amino]-pyrimidine-5-carbonitrile] | 6.31 |
| CSc1nc(N)nc(-c2ccc3c(c2)OCCO3)c1C#N [Example 23, 2-Amino-4-(2,3-dihydro-benzo[1,4]dioxin-6-yl)-6-methylsulfanyl-pyrimidine-5-carbonitrile] | 9.12 |
| N#Cc1c(-c2ccco2)nc(N)nc1N1CCCCC1 [Example 41, 2-Amino-4-furan-2-yl-6-piperidin-1-yl-pyrimidine-5-carbonitrile] | 8.51 |
| N#Cc1c(NCCCc2ccccc2)nc(N)nc1-c1ccco1 [Example 44, 2-Amino-4-furan-2-yl-6-(3-phenyl-propylamino)-pyrimidine-5-carbonitrile] | 2.51 |
| N#Cc1c(OCc2ccccc2)nc(N)nc1-c1ccco1 [Example 47, 2-Amino-4-benzyloxy-6-furan-2-yl-pyrimidine-5-carbonitrile] | 3.8 |
| N#Cc1c(SCc2ccccc2)nc(N)nc1-c1ccco1 [Example 52, 2-Amino-4-benzylsulfanyl-6-furan-2-yl-pyrimidine-5-carbonitrile] | 3.98 |
| N#Cc1c(OCCc2ccccc2)nc(N)nc1-c1ccco1 [Example 53, 2-Amino-4-furan-2-yl-6-phenethyloxy-pyrimidine-5-carbonitrile] | 6.31 |
| N#Cc1c(OCCCc2ccccc2)nc(N)nc1-c1ccco1 [Example 54, 2-Amino-4-furan-2-yl-6-(3-phenyl-propoxy)-pyrimidine-5-carbonitrile] | 7.41 |
| N#Cc1c(OC2CCCCC2)nc(N)nc1-c1ccco1 [Example 55, 2-Amino-4-cyclohexyloxy-6-furan-2-yl-pyrimidine-5-carbonitrile] | 7.41 |
| N#Cc1c(NCCc2ccc(O)cc2)nc(N)nc1-c1ccco1 [Example 58, 2-Amino-4-furan-2-yl-6-[2-(4-hydroxy-phenyl)-ethylamino]-pyrimidine-5-carbonitrile] | 6.46 |
| CCCCSc1nc(N)nc(-c2ccco2)c1C#N [Example 60, 2-Amino-4-butylsulfanyl-6-furan-2-yl-pyrimidine-5-carbonitrile] | 4.57 |
| CC(C)Oc1nc(N)nc(-c2ccco2)c1C#N [Example 61, 2-Amino-4-furan-2-yl-6-isopropoxy-pyrimidine-5-carbonitrile] | 6.92 |
| N#Cc1c(OCc2ccccn2)nc(N)nc1-c1ccco1 [Example 76, 2-Amino-4-furan-2-yl-6-(pyridin-2-ylmethoxy)-pyrimidine-5-carbonitrile] | 2.09 |
| N#Cc1c(SCCCc2ccccc2)nc(N)nc1-c1ccccc1 [Example 85, 2-Amino-4-phenyl-6-(3-phenyl-propylsulfanyl)-pyrimidine-5-carbonitrile] | 7.94 |
| N#Cc1nc(N)nc(-c2ccco2)c1C#N [Example 94, 2-Amino-6-furan-2-yl-pyrimidine-4,5-dicarbonitrile] | 9.77 |
| N#Cc1c(OCCc2ccccc2)nc(N)nc1-c1ccccc1 [Example 104, 2-Amino-4-phenethyloxy-6-phenyl-pyrimidine-5-carbonitrile] | 3.98 |
| N#Cc1c(OCc2ccccn2)nc(N)nc1-c1ccccc1 [Example 105, 2-Amino-4-phenyl-6-(pyridin-2-ylmethoxy)-pyrimidine-5-carbonitrile] | 7.41 |
| COc1ccc(CCNc2nc(N)nc(-c3ccco3)c2C#N)cc1 [Example 144, 2-Amino-4-furan-2-yl-6-[2-(4-methoxy-phenyl)-ethylamino]-pyrimidine-5-carbonitrile] | 2.82 |
| Nc1nc(OCc2ccccn2)c(Br)c(-c2ccco2)n1 [Example 168, 5-Bromo-4-furan-2-yl-6-(pyridin-2-ylmethoxy)-pyrimidin-2-yl-amine] | 9.33 |
| N#Cc1c(OCc2ccccn2)nc(N)nc1-c1cccs1 [Example 206, 2-Amino-4-(pyridin-2-ylmethoxy)-6-thiophen-2-yl-pyrimidine-5-carbonitrile] | 9.55 |
| Nc1nc(NCCCc2ccccc2)c(Br)c(-c2ccco2)n1 [Example 208, 5-Bromo-6-furan-2-yl-N4-(3-phenyl-propyl)-pyrimidine-2,4-diamine hydrochloride] | 9.12 |
| N#Cc1c(OCc2cccnc2)nc(N)nc1-c1ccco1 [Example 219, 2-Amino-4-furan-2-yl-6-(pyridin-3-ylmethoxy)-pyrimidine-5-carbonitrile] | 5.89 |

| SMILES | Ki [nM] |
| --- | --- |
| Nc1nc(OCCCc2ccccc2)c(Br)c(-c2ccco2)n1 [Example 230, 5-Bromo-4-furan-2-yl-6-(3-phenyl-propoxy)-pyrimidin-2-yl-amine] | 1.66 |
| N#Cc1c(OCCNc2ccccc2)nc(N)nc1-c1ccco1 [Example 231, 2-Amino-4-furan-2-yl-6-(2-1-phenylamino-ethoxy)-pyrimidine-5-carbonitrile] | 8.13 |
| N#Cc1c(SCCc2ccccc2)nc(N)nc1-c1ccco1 [Example 233, 2-Amino-4-furan-2-yl-6-phenethylsulfanyl-pyrimidine-5-carbonitrile] | 2.75 |
| N#Cc1c(SCCCc2ccccc2)nc(N)nc1-c1ccco1 [Example 234, 2-Amino-4-furan-2-yl-6-(3-phenyl-propylsulfanl)-pyrimidine-5-carbonitrile] | 5.5 |
| N#Cc1c(NCCOc2ccccc2)nc(N)nc1-c1ccco1 [Example 235, 2-Amino-4-furan-2-yl-6-(2-phenoxy-ethylamino)-pyrimidine-5-carbonitrile] | 3.47 |
| Cc1cccc(COc2nc(N)nc(-c3ccco3)c2C#N)n1 [Example 237, 2-Amino-4-furan-2-yl-6-(6-methyl-pyridin-2-ylmethoxy)-pyrimidine-5-carbonitrile] | 2.95 |
| N#Cc1c(OCCc2ccccn2)nc(N)nc1-c1ccco1 [Example 241, 2-Amino-4-furan-2-yl-6-(2-pyridin-2-yl-ethoxy)-pyrimidine-5-carbonitrile] | 2.19 |
| Cc1ccc(-c2nc(N)nc(NCc3ccccc3)c2C#N)o1 [Example 245, 2-Amino-4-benzylamino-6-(5-methyl-furan-2-yl)-pyrimidine-5-carbonitrile] | 5.5 |
| Cc1cccc(COc2nc(N)nc(-c3ccc(C)o3)c2C#N)n1 [Example 246, 2-Amino-4-(5-methyl-furan-2-yl)-6-(6-methyl-pyridin-2-ylmethoxy)-pyrimidine-5-carbonitrile] | 1.86 |
| Cc1ccc(-c2nc(N)nc(OCc3ccccn3)c2C#N)o1 [Example 247, 2-Amino-4-(5-methyl-furan-2-yl)-6-(pyridin-2-ylmethoxy)-pyrimidine-5-carbonitrile] | 2.14 |
| Nc1nc(OCCCc2ccccc2)c(I)c(-c2ccco2)n1 [Example 267, 4-Furan-2-yl-5-iodo-6-(3-phenyl-propoxy)-pyrimidin-2-yl-amine] | 4.37 |
| Nc1nc(SCCc2ccccc2)c(Br)c(-c2ccco2)n1 [Example 269, 5-Bromo-4-furan-2-yl-6-phenethylsulfanyl-pyrimidin-2-yl-amine] | 7.76 |
| N#Cc1c(OCC=Cc2ccccc2)nc(N)nc1-c1ccco1 [Example 278, 2-Amino-4-furan-2-yl-6-(3-phenyl-allyloxy)-pyrimidine-5-carbonitrile] | 3.72 |
| Nc1nc(OCC=Cc2ccccc2)c(Br)c(-c2ccco2)n1 [Example 280, 5-Bromo-4-furan-2-yl-6-(3-phenyl-allyloxy)-pyrimidin-2-yl-amine] | 9.33 |
| N#Cc1c(NCc2ccccn2)nc(N)nc1-c1ccco1 [Example 283, 2-Amino-4-furan-2-yl-6-[(pyridin-2-ylmethyl)-amino]-pyrimidine-5-carbonitrile] | 5.89 |
| N#Cc1c(SCc2ccccn2)nc(N)nc1-c1ccco1 [Example 284, 2-Amino-4-furan-2-yl-6-(pyridin-2-ylmethylsulfanyl)-pyrimidine-5-carbonitrile] | 3.89 |
| Nc1nc(OCc2ccccc2)c([N+](=O)[O-])c(-c2ccco2)n1 [Example 286, 4-Benzyloxy-6-furan-2-yl-5-nitro-pyrimidin-2-yl-amine] | 9.55 |
| Cc1cccc(CNc2nc(N)nc(-c3ccco3)c2C#N)c1 [Example 289, 2-Amino-4-furan-2-yl-6-(3-methyl-benzylamino)-pyrimidine-5-carbonitrile] | 3.72 |
| COc1cccc(CNc2nc(N)nc(-c3ccco3)c2C#N)c1 [Example 291, 2-Amino-4-furan-2-yl-6-(3-methoxy-benzylamino)-pyrimidine-5-carbonitrile] | 3.31 |
| COc1ccccc1CNc1nc(N)nc(-c2ccco2)c1C#N [Example 293, 2-Amino-4-furan-2-yl-6-(2-methoxy-benzylamino)-pyrimidine-5-carbonitrile] | 3.72 |
| N#Cc1c(NCc2ccc3ccccc3n2)nc(N)nc1-c1ccco1 [Example 297, 2-Amino-4-furan-2-yl-6-[(quinolin-2-ylmethyl)-amino]-pyrimidine-5-carbonitrile] | 1.38 |
| N#Cc1c(NCCSc2ccccc2)nc(N)nc1-c1ccco1 [Example 302, 2-Amino-4-furan-2-yl-6-(2-phenylsulfanyl-ethylamino)-pyrimidine-5-carbonitrile] | 7.76 |
